How the values were obtained:
PBMC = test: IL-2-induced PBMC proliferation assay ([3H]thymidine); type: cell-based, human; conditions: PBMC from a healthy donor; with IL-2 50 U/mL; compared with IL-2 alone and untreated controls; FIG. 1
Experimental: Isolation of peripheral blood mononuclear cells (PBMC). Lymphocytes and monocytes were purified from blood samples from healthy donors using Ficoll-Paque Plus (Amersham Biosciences, Uppsala, Sweden). The blood sample was diluted with PBS and carefully layered on a Ficoll-sodium diatrizoate solution, after which the two-phase system was centrifuged at 400×g for 30 min. […] The lymphocyte layer was collected using a Pasteur pipette, and the cells washed with HBSS to remove excess Ficoll-Paque Plus, plasma and platelets. The cells were counted and dissolved in RPMI medium containing 10% HuS, 1% PeSt and 1% glutamine.
Proliferation assay. Interleukin (IL)-2 plays a pivotal role in lymphocyte activation and proliferation. For this reason the effect of GnRH analog on IL-2-induced PBMC proliferation was investigated. PBMCs from a healthy donor were plated in round-bottomed 96-well plates at a concentration of 1×10^5 cells/100 μL in the culture medium described above. Just after the onset of culture, the cells were treated with IL-2 (Proleukin, Chiron Corporation, Emeryville, Ca, USA) at a concentration of 50 U/mL and with three different concentrations between 1×10^−9 and 1×10^−5 M of GnRH analog (Leuprolide acetate, Nordic Drugs, Limhamn, Sweden) or culture medium (FIG. 1). […] Radioactivity was measured using a 1205 Betaplate Liquid ScintillCounter (Wallac, Turku, Finland).

T cells = test: Stimulation of T cells in whole blood with GnRH analog, activation markers by flow cytometry; type: cell-based, human
Experimental: Stimulation of T-cells from HIV-patients with GnRH-analog. Because of the risk of contamination, blood samples from HIV-patients had to be handled and analyzed in a closed automated system. Heparinised blood from three HIV-patients and two healthy individuals was diluted with serum-free culture medium (Aim V from Invitrogen) and stimulated with 50 U/mL IL-2 and four different concentrations of the GnRH analog leuprolide acetate between 10^−1 and 10^−5 M. The blood samples were handled by a dispensation robot (Prep Plus) and incubated, lysed, stabilized and fixed in a TQ-Prep machine. The incubation time was 18 h and the temperature 37° C. After the incubation with Leuprolide acetate and IL-2, the cells were stained with fluorochrome-conjugated mAbs for 10 min, and red blood cells were lysed. The lymphocytes were subsequently analysed by flow cytometry on an Epics XL-MCL (all machines from Beckman Coulter). T-cells were identified by their forward-and side scatter properties, and the surface expression of CD3. The expression of the activation markers CD25, CD69, HLA ABC, and HLA DR on T cells was evaluated.

[1] = whole blood, HIV-infected patients and control subjects, 18 h incubation

CCNC(=O)[C@@H]1CCCN1C(=O)[C@H](CCCNC(=N)N)NC(=O)[C@H](CC(C)C)NC(=O)[C@@H](CC(C)C)NC(=O)[C@H](Cc1ccc(O)cc1)NC(=O)[C@H](CO)NC(=O)[C@H](Cc1c[nH]c2ccccc12)NC(=O)[C@H](Cc1c[nH]cn1)NC(=O)[C@@H]1CCC(=O)N1 [GnRH, D-Leu^6, des-Gly-NH2^10] GnRH (1-9) NHEt]
PBMC proliferation (PBMC): increased proliferation
expression of HLA DR on T cells (T cells; whole blood from HIV-patients, 18 h incubation): increased in one of three HIV-patients
expression of HLA ABC on T cells (T cells; whole blood from healthy subjects or HIV-infected patients, 18 hours incubation, 50 U/mL IL-2, leuprolide acetate between 10^−1 and 10^−5 M, FIG. 6): upregulation of HLA ABC
expression of CD25 on T cells (T cells; [1]): only a slight increase
expression of CD69 on T cells (T cells; [1]): only a slight increase

— patent publication US20110129532A1, “METHOD AND MEANS FOR TREATING VIRAL DISEASE, IN PARTICULAR HIV/AIDS” (ISR Immune System Regulation AB, priority 2008, published 2011)
